The source of these data is patent US8501959B2, “Cycloalkane[B]indole antagonists of prostaglandin D2 receptors” (Panmira Pharmaceuticals, LLC, priority 2008, dated 2013).

Test [1] has as its target T1, human DP1 receptor (Homo sapiens, UniProt Q13258).
T1 construct: tissue Biological Specialty Corporation; host or cells: human platelets, membrane preparation
T1 sequence (Q13258 1-359): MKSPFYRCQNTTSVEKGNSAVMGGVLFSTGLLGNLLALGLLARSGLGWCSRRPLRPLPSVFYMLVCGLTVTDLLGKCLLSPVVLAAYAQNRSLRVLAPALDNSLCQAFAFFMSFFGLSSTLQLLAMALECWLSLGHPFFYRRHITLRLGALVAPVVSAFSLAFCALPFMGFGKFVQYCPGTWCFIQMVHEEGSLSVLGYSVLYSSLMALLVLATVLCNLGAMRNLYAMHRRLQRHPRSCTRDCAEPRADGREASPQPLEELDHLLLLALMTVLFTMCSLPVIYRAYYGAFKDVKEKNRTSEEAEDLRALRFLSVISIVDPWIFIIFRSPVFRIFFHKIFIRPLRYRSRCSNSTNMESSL
Put plainly: DP1 binding assay (radioligand [3H]BWA868C). Conditions: [3H]BWA868C binding, human platelet membranes; read-out: hDP1. The method, then: The ability of a compound to bind to the human DP1 receptor was evaluated via a radioligand membrane binding assay using the DP1 selective synthetic ligand [^3H]BWA868C. Packed human platelets (Biological Specialty Corporation), were resuspended in 6 volumes of Hepes/HBSS buffer (10 mM Hepes, 1 mM DTT in Hanks Balanced Salt Solution (HBSS), lysed and centrifuged at 75,000×g to pellet the membranes. Membranes were resuspended in Hepes/HBSS buffer to approximately 12 mg protein/ml. Membranes (20 μg protein/well) are incubated in 96-well plates with 2 nM [^3H]BWA868C and test compound in Assay Buffer (50 mM Hepes, 10 mM MnCl2, 1 mM EDTA, plus or minus 0.2% human serum albumin, pH 7.4) for 60 minutes at room temperature. The reactions are terminated by rapid filtration through Whatman GF/C glass fibre filter plates. The filter plates were pre-soaked in 0.33% polethylenimine for 30 minutes at room temperature then washed in Wash Buffer (50 mM Hepes, 0.5 M NaCl pH 7.4) prior to harvesting. After harvesting, the filter plates are washed 3 times with 1 ml cold Wash Buffer then dried. Scintillant is then added to the plates and the radioactivity retained on the filters is determined on a Packard TopCount (Perkin Elmer). Specific binding is determined as total radioactive binding minus non-specific binding in the presence of 10 μM BW A868C. IC50s were determined using GraphPad prism analysis of drug titration curves.

Test [2] deals with T2, human DP2 receptor (Homo sapiens, UniProt Q9Y5Y4).
T2 construct: expressed in transfected cells
T2 sequence (Q9Y5Y4 1-395): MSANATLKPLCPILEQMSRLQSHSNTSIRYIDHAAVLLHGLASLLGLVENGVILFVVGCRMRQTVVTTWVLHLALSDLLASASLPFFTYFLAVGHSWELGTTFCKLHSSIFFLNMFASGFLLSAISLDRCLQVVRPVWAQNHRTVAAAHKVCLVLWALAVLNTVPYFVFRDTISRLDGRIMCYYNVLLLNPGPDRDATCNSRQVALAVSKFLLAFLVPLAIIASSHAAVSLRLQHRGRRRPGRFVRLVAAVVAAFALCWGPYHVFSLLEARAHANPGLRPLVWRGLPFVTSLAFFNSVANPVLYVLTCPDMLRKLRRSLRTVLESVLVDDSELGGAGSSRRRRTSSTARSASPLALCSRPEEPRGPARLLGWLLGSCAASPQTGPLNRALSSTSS
Description: DP2/CRTH2 binding assay (radioligand [3H]PGD2). Conditions: [3H]PGD2 binding, membranes of HEK293 cells expressing recombinant human DP2; read-out: hDP2. The method, then:
The ability of a compound to bind to the human DP2 receptor is assessed via a radioligand binding assay using [^3H]PGD2. HEK293 cells stably expressing recombinant human DP2 are resuspended in 10 mM Hepes, 7.4 containing 1 mM DTT, lysed and centrifuged at 75,000×g to pellet the membranes. The membranes are resuspended in 10 mM Hepes, 7.4 containing 1 mM DTT and 10% glycerol to approximately 5 mg protein/ml. Membranes (2-10 μg protein/well) are incubated in 96-well plates with 1 nM [^3H]PGD2 and test compound in Assay Buffer (50 mM Hepes, 10 mM MnCl2, 1 mM EDTA, plus or minus 0.2% human serum albumin, pH 7.4) for 60 minutes at room temperature. The reactions are terminated by rapid filtration through Whatman GF/C glass fibre filter plates. The filter plates were pre-soaked in 0.33% polythylenimine for 30 minutes at room temperature then washed in Wash Buffer (50 mM Hepes, 0.5 M NaCl pH 7.4) prior to harvesting. After harvesting, the filter plates are washed 3 times with 1 ml cold Wash Buffer then dried. Scintillant is then added to the plates and the radioactivity retained on the filters is determined on a Packard TopCount (Perkin Elmer). Specific binding is determined as total radioactive binding minus non-specific binding in the presence of 10 μM PGD2. IC50s were determined using GraphPad prism analysis of drug titration curves.

A value given as a limit tells only on which side of the number the result lay.

`O=C(O)CN(C1CCc2c(c3ccccc3n2CC(=O)O)C1)S(=O)(=O)c1ccc(F)cc1` (centres unmarked) [Compound 1-1, {3-[Carboxymethyl-(4-fluoro-benzenesulfonyl)-amino]-1,2,3,4-tetrahydro-carbazol-9-yl}-acetic acid]: the IC50 in test [1] was > 1000 nM; in test [2] it was < 300 nM.

As to `CC(C)(O)CCn1c2c(c3ccccc31)CC(N(CC(=O)O)S(=O)(=O)c1ccc(F)cc1)CC2` (centres unmarked) [Compound 1-2, {(4-Fluoro-benzenesulfonyl)-[9-(3-hydroxy-3-methyl-butyl)-2,3,4,9-tetrahydro-1H-carbazol-3-yl]-amino}-acetic acid], the IC50 in test [1] and in test [2] was > 1000 nM throughout.

Turning to `CC(C)(O)CN(C1CCc2c(c3ccccc3n2CCC(=O)O)C1)S(=O)(=O)c1ccc(F)cc1` (centres unmarked) [Compound 1-3, 3-{3-[(4-Fluoro-benzenesulfonyl)-(2-hydroxy-2-methyl-propyl)-amino]-1,2,3,4-tetrahydro-carbazol-9-yl}-propionic acid], the IC50 in test [1] and in test [2] was > 1000 nM throughout.

Take `NC(=O)CN(C1CCc2c(c3ccccc3n2CCC(=O)O)C1)S(=O)(=O)c1ccc(F)cc1` (centres unmarked) [Compound 1-5, 3-{3-[Carbamoylmethyl-(4-fluoro-benzenesulfonyl)-amino]-1,2,3,4-tetrahydro-carbazol-9-yl}-propionic acid]: the IC50 in test [1] and in test [2] was > 1000 nM in each case.

With `O=C(O)CCn1c2c(c3ccccc31)CC(N(CC(=O)O)S(=O)(=O)c1ccc(F)cc1)CC2` (centres unmarked) [Compound 1-6, 3-{3-[Carboxymethyl-(4-fluoro-benzenesulfonyl)-amino]-1,2,3,4-tetrahydro-carbazol-9-yl}-propionic acid], the IC50 in test [1] and in test [2] was > 1000 nM in each case.

In the case of `CC(C)(O)CCn1c2c(c3ccccc31)CC(N(CC(C)(C)O)S(=O)(=O)c1ccc(F)cc1)CC2` (centres unmarked) [Compound 1-4, 4-FluoroN-[9-(3-hydroxy-3-methyl-butyl)-2,3,4,9-tetrahydro-1H-carbazol-3-yl]-N-(2-hydroxy-2-methyl-propyl)-benzenesulfonamide], the IC50 in test [1] and in test [2] was > 1000 nM throughout.

`O=C(O)CCn1c2c(c3ccccc31)C[C@H](NS(=O)(=O)c1ccc(F)cc1)CC2` [Ramatroban, reference compound]: the IC50 in test [1] is > 1000 nM; in test [2], > 300 nM.
